Assay results: the NIST ThermoML archive (doi:10.1021/je300603d)

Assay: mn = molality of the nth substance listed, in mol/kg
Details: 101 kPa, Liquid; for electrical conductivity: Alternating current cell with electrodes; for viscosity: Falling or rolling sphere viscometry; for mass density: Vibrating tube method

F[B-](F)(F)F.[Na+] [sodium tetrafluoroborate] + CCCCn1cc[n+](C)c1.F[B-](F)(F)F
Details | electrical conductivity [S/m] | mass density [kg/m3] | viscosity [mPa·s]
238.15 K, m1 = 0.058 | 0.00083 | – | –
238.15 K, m1 = 0.1159 | 0.00077 | – | –
238.15 K, m1 = 0.1739 | 0.00071 | – | –
258.15 K, m1 = 0.058 | 0.0211 | – | –
258.15 K, m1 = 0.1159 | 0.0201 | – | –
258.15 K, m1 = 0.1739 | 0.0188 | – | –
278.15 K, m1 = 0.0273 | – | 1218 | –
278.15 K, m1 = 0.054 | – | 1219.4 | –
278.15 K, m1 = 0.058 | 0.1075 | 1219.2 | 400.2
278.15 K, m1 = 0.0676 | – | 1220.7 | –
278.15 K, m1 = 0.0903 | – | 1221.3 | –
278.15 K, m1 = 0.1069 | – | 1222.4 | –
278.15 K, m1 = 0.1159 | 0.103 | 1222.8 | 421.4
278.15 K, m1 = 0.1377 | – | 1224.3 | –
278.15 K, m1 = 0.1739 | 0.0986 | 1226.2 | 454.8
288.15 K, m1 = 0.0273 | – | 1210.7 | –
288.15 K, m1 = 0.054 | – | 1212.2 | –
288.15 K, m1 = 0.058 | – | 1212.1 | 204.4
288.15 K, m1 = 0.0676 | – | 1213.4 | –
288.15 K, m1 = 0.0903 | – | 1214 | –
288.15 K, m1 = 0.1069 | – | 1215.1 | –
288.15 K, m1 = 0.1159 | – | 1215.5 | 215.5
288.15 K, m1 = 0.1377 | – | 1217 | –
288.15 K, m1 = 0.1739 | – | 1218.9 | 232.6
298.15 K, m1 = 0.0273 | – | 1203.5 | –
298.15 K, m1 = 0.054 | – | 1204.9 | –
298.15 K, m1 = 0.058 | 0.341 | 1205 | 115.5
298.15 K, m1 = 0.0676 | – | 1206.1 | –
298.15 K, m1 = 0.0903 | – | 1206.8 | –
298.15 K, m1 = 0.1069 | – | 1207.9 | –
298.15 K, m1 = 0.1159 | 0.328 | 1208.3 | 121.4
298.15 K, m1 = 0.1377 | – | 1209.8 | –
298.15 K, m1 = 0.1739 | 0.316 | 1211.6 | 130.4
308.15 K, m1 = 0.0273 | – | 1196.3 | –
308.15 K, m1 = 0.054 | – | 1197.7 | –
308.15 K, m1 = 0.058 | – | 1198 | 70.66
308.15 K, m1 = 0.0676 | – | 1199 | –
308.15 K, m1 = 0.0903 | – | 1199.6 | –
308.15 K, m1 = 0.1069 | – | 1200.7 | –
308.15 K, m1 = 0.1159 | – | 1201.1 | 74.52
308.15 K, m1 = 0.1377 | – | 1202.6 | –
308.15 K, m1 = 0.1739 | – | 1204.4 | 79.37
318.15 K, m1 = 0.0273 | – | 1189.2 | –
318.15 K, m1 = 0.054 | – | 1190.7 | –
318.15 K, m1 = 0.058 | 0.794 | 1190.9 | 46.1
318.15 K, m1 = 0.0676 | – | 1191.9 | –
318.15 K, m1 = 0.0903 | – | 1192.5 | –
318.15 K, m1 = 0.1069 | – | 1193.6 | –
318.15 K, m1 = 0.1159 | 0.769 | – | 48.94
318.15 K, m1 = 0.1739 | 0.745 | – | 51.72
